# Key:
# Assay type in all cases: biochemical
# [1] = tested on: AlDH of bacterial sources; assay: Screening of tryptophan metabolites for inhibition of bacterial AlDH activity in vitro; conditions: for % inhibition of AlDH activity: 100 μM concentration, in vitro
# Procedure: Tryptophan and its various metabolites were tested for possible inhibition of activity of AlDH of bacterial sources. The terms “inhibitor of AlDH activity” and the like mean that the activity of AlDH in vivo in the presence of the inhibitor is reduced. In practice, this may be predicted by reference to the inhibitory activity of the compound or composition in vitro.
# An enzyme preparation was purchased from Sigma, (Poole, Dorset, UK) and was used for the screening of tryptophan and its metabolites. A number of preliminary experiments were performed to optimise the conditions of the assay, which was performed according to standard experimental conditions published in the literature and well known to those skilled in the art. All assays were performed in triplicate or quadruplicate determinations for both controls (no additions) and tryptophan metabolites.
# Tryptophan and its metabolites were first tested at a 100 μM concentration. The tryptophan metabolites screened included the following: […]
# [2] = target: T1, low Km AlDH from rat liver (Rattus norvegicus, UniProt P11884); assay: Inhibition of mammalian mitochondrial (low Km) AlDH in rat liver preparation; conditions: Example 3, preliminary results, 2 μM concentration
# T1 construct: using a preparation from rat liver containing both Low Km and high Km AlDH; from tissue; host or cells: rat liver preparation
# T1 sequence (P11884 20-519): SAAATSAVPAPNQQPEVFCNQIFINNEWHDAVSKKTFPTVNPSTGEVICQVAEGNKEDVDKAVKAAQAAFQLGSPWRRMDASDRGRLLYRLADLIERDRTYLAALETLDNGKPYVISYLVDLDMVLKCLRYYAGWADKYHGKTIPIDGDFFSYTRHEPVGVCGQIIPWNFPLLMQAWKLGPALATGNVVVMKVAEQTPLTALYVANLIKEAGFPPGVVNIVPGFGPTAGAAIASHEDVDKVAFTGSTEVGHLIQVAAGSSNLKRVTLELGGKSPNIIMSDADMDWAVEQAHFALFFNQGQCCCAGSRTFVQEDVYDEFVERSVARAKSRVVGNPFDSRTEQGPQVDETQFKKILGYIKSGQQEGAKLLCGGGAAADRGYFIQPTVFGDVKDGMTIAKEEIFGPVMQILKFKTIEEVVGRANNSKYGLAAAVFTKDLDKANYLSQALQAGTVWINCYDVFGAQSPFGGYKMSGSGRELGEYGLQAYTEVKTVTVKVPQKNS
# [3] = target: T1, low Km AlDH from rat liver; assay: as above; conditions: Example 4, rat liver low Km AlDH, 5 μM acetaldehyde
# Procedure: Experiments were therefore performed using a preparation from rat liver in which both the low Km and the high Km enzymes can be measured simultaneously, but at different substrate (acetaldehyde) concentrations, namely, 5 μM for the low Km and 5 mM for the high Km, enzyme.
compound,measurement,setting,value
Nc1c(O)cccc1C(=O)O [3-hydroxyanthranilic acid],inhibition of bacterial AlDH activity,[1]; 2 μM concentration,3%
same,inhibition of bacterial AlDH activity,[1]; 10 μM concentration,17%
same,% inhibition of AlDH activity,[1],97%
same,inhibition of the mammalian low km enzyme,[2],46%
same,inhibition of activity of the low Km enzyme,[3]; 2 μM concentration,46%
same,inhibition of activity of the low Km enzyme,[3]; 10 μM concentration,54%
same,inhibition of activity of the low Km enzyme,[3]; 100 μM concentration,76%
Nc1c(O)cccc1C(=O)CC(N)C(=O)O (stereo not drawn) [3-hydroxykynurenine],inhibition of bacterial AlDH activity,[1]; 2 μM concentration,+1%
same,inhibition of bacterial AlDH activity,[1]; 10 μM concentration,55%
same,% inhibition of AlDH activity,[1],97%
same,inhibition of the mammalian low km enzyme,[2],65%
same,inhibition of activity of the low Km enzyme,[3]; 2 μM concentration,55%
same,inhibition of activity of the low Km enzyme,[3]; 10 μM concentration,52%
same,inhibition of activity of the low Km enzyme,[3]; 100 μM concentration,69%
O=C(O)Cc1c[nH]c2ccc(O)cc12 [5-hydroxyindol-3-ylacetic acid],% inhibition of AlDH activity,[1],4%
NCCc1c[nH]c2ccc(O)cc12 [5-hydroxytryptamine],% inhibition of AlDH activity,[1],15%
OCCc1c[nH]c2ccc(O)cc12 [5-hydroxytryptophol],% inhibition of AlDH activity,[1],7%
N[C@@H](Cc1c[nH]c2ccc(O)cc12)C(=O)O [5-hydroxytrytophan],% inhibition of AlDH activity,[1],23%
Nc1ccccc1C(=O)O [anthranilic acid],% inhibition of AlDH activity,[1],9%
"CCN(CC)C(=S)SSC(=S)N(CC)CC [disulfiram, reference compound]",inhibition of the mammalian low km enzyme,[2],30-46%
same,inhibition of activity of the low Km enzyme,[3]; 2 μM concentration,30-46%
same,inhibition of activity of the low Km enzyme,[3]; 10 μM concentration,38-43%
same,inhibition of activity of the low Km enzyme,[3]; 100 μM concentration,46-50%
O=CCc1c[nH]c2ccccc12 [indol-3-ylacetaldehyde],% inhibition of AlDH activity,[1],55%
O=C(O)Cc1c[nH]c2ccccc12 [indol-3-ylacetic acid],% inhibition of AlDH activity,[1],11%
O=C(O)C(=O)Cc1c[nH]c2ccccc12 [indol-3-ylpyruvic acid],inhibition of bacterial AlDH activity,[1]; 2 μM concentration,24%
same,inhibition of bacterial AlDH activity,[1]; 10 μM concentration,29%
same,% inhibition of AlDH activity,[1],94%
same,inhibition of the mammalian low km enzyme,[2],37%
same,inhibition of activity of the low Km enzyme,[3]; 2 μM concentration,30%
same,inhibition of activity of the low Km enzyme,[3]; 10 μM concentration,38%
same,inhibition of activity of the low Km enzyme,[3]; 100 μM concentration,53%
O=C(O)c1cc(=O)c2ccccc2[nH]1 [kynurenic acid],inhibition of bacterial AlDH activity,[1]; 2 μM concentration,5%
same,inhibition of bacterial AlDH activity,[1]; 10 μM concentration,30%
same,% inhibition of AlDH activity,[1],90%
same,inhibition of the mammalian low km enzyme,[2],30%
same,inhibition of activity of the low Km enzyme,[3]; 2 μM concentration,40%
same,inhibition of activity of the low Km enzyme,[3]; 10 μM concentration,43%
same,inhibition of activity of the low Km enzyme,[3]; 100 μM concentration,43%
Nc1ccccc1C(=O)CC(N)C(=O)O (stereo not drawn) [kynurenine],% inhibition of AlDH activity,[1],24%
NC(=O)c1cccnc1 [nicotinamide],% inhibition of AlDH activity,[1],7%
c1ccc2c(c1)[nH]c1cnccc12 [norharman],% inhibition of AlDH activity,[1],23%
O=C(O)c1ccc2ccccc2n1 [quinaldic acid],% inhibition of AlDH activity,[1],7%
O=C(O)c1cccnc1C(=O)O [quinolinic acid],% inhibition of AlDH activity,[1],13%
NCCc1c[nH]c2ccccc12 [tryptamine],% inhibition of AlDH activity,[1],0%
N[C@@H](Cc1c[nH]c2ccccc12)C(=O)O [tryptophan],% inhibition of AlDH activity,[1],2%
O=C(O)c1cc(O)c2cccc(O)c2n1 [xanthurenic acid],% inhibition of AlDH activity,[1],56%
O=C(O)CCCC(=O)C(=O)O [α-ketoadipic acid],% inhibition of AlDH activity,[1],1%

# From US8003704B2, “Methods and compositions for the treatment of alcoholism and alcohol dependence” (priority 2000, dated 2011)
